Data from ChEMBL document CHEMBL6096737, “Discovery of Pyrrolopyrazine Carboxamide Derivatives as Potent and Selective FGFR2/3 Inhibitors that Overcome Mutant Resistance” (J Med Chem, 2025).
Each block holds one compound with its values, some of them ahead of it.

Assays:
in vivo [1] = settings: female, CD-1, mouse, po, 10 mg/kg
in vivo [2] = settings: female, CD-1, mouse, po, 10 mg/kg; remark: listed apart in the source
in vivo [3] = settings: female, CD-1, mouse, po, 10 mg/kg; remark: listed apart in the source
in vivo [4] = settings: male, Sprague-Dawley, rat, plasma, iv, 1 mg/kg
in vivo [5] = settings: male, Sprague-Dawley, rat, po, 10 mg/kg
in vivo [6] = settings: male, Sprague-Dawley, rat, po, 10 mg/kg; remark: listed apart in the source
in vivo [7] = settings: male, Sprague-Dawley, rat, po, 10 mg/kg; remark: listed apart in the source
in vivo [8] = settings: male, Sprague-Dawley, rat, po, 10 mg/kg; remark: listed apart in the source
in vivo [9] = settings: male, Sprague-Dawley, rat, po, 10 mg/kg; remark: listed apart in the source
in vivo [10] = settings: male, Beagle, dog, plasma, iv, 1 mg/kg
in vivo [11] = settings: male, Beagle, dog, po, 5 mg/kg
in vivo [12] = settings: male, Beagle, dog, po, 5 mg/kg; remark: listed apart in the source
in vivo [13] = settings: male, Beagle, dog, po, 5 mg/kg; remark: listed apart in the source
in vivo [14] = settings: male, Beagle, dog, po, 5 mg/kg; remark: listed apart in the source
in vivo [15] = settings: male, Beagle, dog, po, 5 mg/kg; remark: listed apart in the source
in vivo [16] = settings: female, Balb/c, mouse, po, 10 mg/kg
in vivo [17] = settings: female, Balb/c, mouse, po, 10 mg/kg; remark: listed apart in the source
in vivo [18] = settings: female, Balb/c, mouse, po, 10 mg/kg; remark: listed apart in the source
in vitro = settings: human, plasma
in vivo [19] = settings: female, CD-1, mouse, plasma, iv, 1 mg/kg
in vivo [20] = settings: female, CD-1, mouse, po, 10 mg/kg; remark: listed apart in the source
in vivo [21] = settings: female, CD-1, mouse, po, 10 mg/kg; remark: listed apart in the source
physchem [22] = settings: glutathione (GSH) solution, 0.1 uM GSH
physchem [23] = settings: glutathione (GSH) solution, 1 uM GSH

MRT last at 24 h (in vivo [1]): 2 h
Cmax at 24 h (in vivo [2]): 5760 ng/mL
half-life at 24 h (in vivo [3]): 144 min
clearance at 24 h (in vivo [4]): 59.4 mL/min/kg
MRT last at 24 h (in vivo [5]): 13.8 min
Cmax at 24 h (in vivo [6]): 111 ng/mL
AUC(0-t) at 24 h (in vivo [7]): 448 ng·h/mL
half-life at 24 h (in vivo [8]): 46.2 min
bioavailability at 24 h (in vivo [9]): 16%
clearance at 24 h (in vivo [10]): 24.9 mL/min/kg
MRT last at 24 h (in vivo [11]): 52.2 min
Cmax at 24 h (in vivo [12]): 1360 ng/mL
AUC(0-t) at 24 h (in vivo [13]): 2680 ng·h/mL
half-life at 24 h (in vivo [14]): 138 min
bioavailability at 24 h (in vivo [15]): 75.4%
MRT last at 8 h (in vivo [16]): 2.7 h
Cmax at 8 h (in vivo [17]): 3740 ng/mL
AUC(0-t) at 8 h (in vivo [18]): 20000 ng·h/mL
half-life (in vitro): > 289 min
Structure (SMILES): C=C(C)C(=O)Nc1ccc(-c2c(-c3ccc(Oc4nccc(C)n4)c(F)c3)c3c(N)ncnc3n2C)cc1 [LIRAFUGRATINIB]

clearance at 24 h (in vivo [19]): 29.1 mL/min/kg
AUC(0-t) at 24 h (in vivo [20]): 2470 ng·h/mL
bioavailability at 24 h (in vivo [21]): 41.9%
half-life (in vitro): > 289 min
Structure (SMILES): C=C(F)C(=O)Nc1ccc(-c2c(-c3ccc(Oc4nccc(C)n4)cc3)c(C(N)=O)c3cnc(C)cn23)c(F)c1

half-life (physchem [22]): 48 min
half-life (physchem [23]): 54 min
Structure (SMILES): C=C(CO)C(=O)Nc1ccc(-c2c(-c3ccc(Oc4nccc(C)n4)cc3)c(C(N)=O)c3cnc(C)cn23)cc1
